From US9228999B2, “Method for screening active agents that stimulate the expression of CERT to improve the skin's barrier function” (CHANEL PARFUMS BEAUTE, priority 2009, dated 2016)

Test system: CERT mRNA
Test: Test for screening active agents by real-time RT-PCR: expression of CERT mRNA in keratinocytes
Format: cell-based
Conditions: normal human keratinocytes (neonatal foreskin), 24 hours incubation, concentration 0.0005%, number of times of increase vs untreated (1.0), normalized to RPLPO
Protocol: The effect of two active agents on the expression of the mRNA of CERT was evaluated in keratinocytes. Keratinocytes derived from neonatal foreskins (Cascade Biologics/Invitrogen, Portland, Oreg., USA) are inoculated in 6-well plates and cultured in keratinocyte growth culture medium (Epilife, Invitrogen), i.e. a modified culture medium supplemented with EDGS. After culturing for 24 hours in an incubator at 37° C., the 70%-80% confluent cells are washed with PBS buffer (Invitrogen) and incubated with basic medium (Epilife, Invitrogen) containing the active agent to be tested, for 24 hours and in triplicate, at increasing concentrations. After studying the cytotoxicity of the active agent, its activity is evaluated. To quantify the expression of CERT messenger RNA in a treated sample relative to an untreated sample, first the RNA is isolated using the RNeasy reagent kit (Qiagen, CA, USA) and then quantified using the QuantIt kit (Invitrogen). Reverse transcription is performed using the gene Amp RNA PCR kit (Applied Biosystems) according to the manufacturer's recommendations. The real-time PCR measurement is performed using the iCYCLER IQ machine (Bio-Rad, CA, USA) with Taqman probes. […] The relative quantification of the expression of the target gene is performed using the Pfaffl mathematical model (Pfaffl, MW, Nucleic Acids Res. 29(9), p. […], 2001). […]

`Oc1ccc(C=Cc2cc(O)cc(O)c2)cc1` [Resveratrol] was tested, and the “Stimulation of CERT mRNA” value was 2.4.
For `O=C(O)CCCC[C@@H]1CCSS1` (racemic) [Lipoic acid], the “Stimulation of CERT mRNA” value was 2.0.
